Where two headings read alike, the source gives them in different places.
How the values were obtained:
PDGF-Ra = target: T1, PDGF-Ra (Homo sapiens, UniProt P16234); assay: Inhibitory activity against PDGF-Ra phosphorylation by PDGF-AA stimulation using G292; type: cell-based; details: for inhibition at 0.1 µM: G292, read-out: PDGF (E) inhibition (%) at 100 nM; for IC50: > means inhibition at indicated concentration not more than 50%, < and << not less than 50%, read-out: PDGF (E) IC50
T1 construct: host or cells: G-292 human osteosarcoma cells
T1 sequence (P16234 24-1089): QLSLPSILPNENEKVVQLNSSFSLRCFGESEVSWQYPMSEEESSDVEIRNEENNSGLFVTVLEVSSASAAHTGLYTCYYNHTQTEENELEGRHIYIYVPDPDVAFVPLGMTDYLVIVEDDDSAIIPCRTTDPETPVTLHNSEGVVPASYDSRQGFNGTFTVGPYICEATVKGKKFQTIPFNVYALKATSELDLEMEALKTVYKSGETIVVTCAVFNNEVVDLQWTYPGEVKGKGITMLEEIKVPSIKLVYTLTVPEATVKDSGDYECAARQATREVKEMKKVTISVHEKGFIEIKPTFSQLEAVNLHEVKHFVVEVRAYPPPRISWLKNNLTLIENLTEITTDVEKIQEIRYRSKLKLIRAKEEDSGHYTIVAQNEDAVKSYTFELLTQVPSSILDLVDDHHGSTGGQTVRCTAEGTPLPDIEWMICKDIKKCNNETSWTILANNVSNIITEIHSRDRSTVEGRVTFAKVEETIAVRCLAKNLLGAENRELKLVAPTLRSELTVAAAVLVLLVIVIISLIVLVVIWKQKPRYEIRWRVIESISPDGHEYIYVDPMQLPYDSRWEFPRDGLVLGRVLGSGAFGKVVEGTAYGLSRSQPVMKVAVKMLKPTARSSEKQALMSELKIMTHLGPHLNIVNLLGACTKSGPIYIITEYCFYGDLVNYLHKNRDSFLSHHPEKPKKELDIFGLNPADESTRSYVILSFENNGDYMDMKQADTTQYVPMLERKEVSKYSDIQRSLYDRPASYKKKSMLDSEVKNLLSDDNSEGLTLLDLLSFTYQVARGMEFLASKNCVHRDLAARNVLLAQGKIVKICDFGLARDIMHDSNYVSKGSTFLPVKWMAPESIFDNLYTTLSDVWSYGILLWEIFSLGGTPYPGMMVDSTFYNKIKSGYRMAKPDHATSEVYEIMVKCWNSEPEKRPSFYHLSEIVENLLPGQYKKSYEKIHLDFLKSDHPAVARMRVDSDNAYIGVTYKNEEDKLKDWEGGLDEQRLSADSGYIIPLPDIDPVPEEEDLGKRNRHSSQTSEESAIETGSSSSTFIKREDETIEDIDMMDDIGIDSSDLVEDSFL
Procedure, shortened: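 G-292 human osteosarcoma cells, serum-starved overnight in 0.1% FBS, were pretreated with compound in DMSO for 1 hr at 37 °C, then stimulated with 50 ng/ml PDGF-AA for 5 min. Lysates were captured on anti-phosphotyrosine PY-20 plates and probed with anti-PDGF-Ra plus HRP secondary; absorbance read at 450 nm.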

c-kit = target: T2, c-kit (Homo sapiens, UniProt P10721); assay: Inhibitory activity against c-kit autophosphorylation (MO7e cells, h-SCF); type: cell-based; details: for inhibition at 1 µM: Mo7e, at 1000 nM; for IC50: MO7e cells, read-out: c-kit IC50
T2 construct: MO7e (human megakaryocytic leukemia cell line) which had been arrested for 20 hr; endogenous in cells; host or cells: MO7e human megakaryocytic leukemia cell line
T2 sequence (P10721 26-976): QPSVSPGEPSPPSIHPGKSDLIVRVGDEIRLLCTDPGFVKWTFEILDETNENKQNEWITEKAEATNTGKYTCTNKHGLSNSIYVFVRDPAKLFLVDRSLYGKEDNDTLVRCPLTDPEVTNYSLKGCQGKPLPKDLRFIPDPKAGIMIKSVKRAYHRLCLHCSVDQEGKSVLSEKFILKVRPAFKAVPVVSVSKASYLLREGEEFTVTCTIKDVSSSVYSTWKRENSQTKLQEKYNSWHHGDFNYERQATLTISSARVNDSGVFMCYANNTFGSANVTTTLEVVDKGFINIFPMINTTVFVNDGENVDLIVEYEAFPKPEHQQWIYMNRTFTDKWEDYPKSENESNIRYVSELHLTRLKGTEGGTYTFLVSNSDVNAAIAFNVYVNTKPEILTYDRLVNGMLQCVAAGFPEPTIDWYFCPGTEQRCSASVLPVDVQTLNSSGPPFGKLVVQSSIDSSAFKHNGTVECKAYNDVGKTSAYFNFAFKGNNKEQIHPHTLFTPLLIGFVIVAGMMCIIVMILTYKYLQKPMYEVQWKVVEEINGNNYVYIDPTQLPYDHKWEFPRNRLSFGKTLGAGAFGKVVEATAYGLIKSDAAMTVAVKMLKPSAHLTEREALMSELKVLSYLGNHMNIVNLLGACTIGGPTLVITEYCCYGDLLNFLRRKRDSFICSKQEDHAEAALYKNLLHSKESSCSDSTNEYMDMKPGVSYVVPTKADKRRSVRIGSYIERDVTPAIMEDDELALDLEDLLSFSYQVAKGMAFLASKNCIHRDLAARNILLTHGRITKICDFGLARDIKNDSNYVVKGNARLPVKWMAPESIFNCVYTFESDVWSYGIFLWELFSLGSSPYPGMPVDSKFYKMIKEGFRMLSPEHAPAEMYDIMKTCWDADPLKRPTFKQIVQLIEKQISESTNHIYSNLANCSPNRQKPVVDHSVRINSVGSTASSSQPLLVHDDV
Procedure, shortened: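 First, human megakaryocytic leukemia MO7e cells arrested 20 hr receive compound for one hour. Second, SCF stimulation (50 ng/ml) runs 5 min, after which cells are solubilized. Third, tyrosine-phosphorylated c-kit in the lysate is quantified by sandwich ELISA with absorbance at 450 nm.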

[1] = figure in parentheses in >100( ), at 100 nM
[2] = figure within parentheses in >100( ), at 100 nM
[3] = figure within parentheses in −( ) or >1000( )

Row | IC50 (PDGF-Ra; Pharmacological Test Example 1) [nM] | IC50 (c-kit; h-SCF 50 ng/ml) [nM] | IC50 (PDGF-Ra) [nM] | SMILES | also measured
1 | > 100 |  |  | CCCCCCCCCCCCCCCCCCOC(=O)Nc1ccc(Oc2ccnc3cc(OC)c(OC)cc23)c(C)c1C [Example 328, Octadecyl N-{4-[(6,7-dimethoxy-4-quinolyl)oxy]-2,3-dimethylphenyl}carbamate] | inhibition at 0.1 µM (PDGF-Ra; [1]): 22%; inhibition at 1 µM (c-kit; figure in parentheses in −( )): 10%
2 | > 100 | 33 |  | COc1cc2ncnc(Oc3ccc(NC(=O)OCCCOc4ccc(F)cc4)c(C)c3C)c2cc1OC [Example 156, 3-(4-Fluorophenoxy)propyl N-{4-[(6,7-dimethoxy-4-quinazolinyl)oxy]-2,3-dimethylphenyl}-carbamate] | inhibition at 0.1 µM (PDGF-Ra; [1]): 48%
3 |  |  | 28 | CCN(CC)CCNC(=S)Nc1ccc(Oc2ccnc3cc(OC)c(OC)cc23)cc1 [Example 589, N-{4-[(6,7-Dimethoxy-4-quinolyl)oxy]phenyl}-N′-(2-diethylaminoethyl)thiourea] | IC50 (c-kit; 50 ng/ml h-SCF): 487 nM
4 | < 10 | 175 |  | COc1cc2ncnc(Oc3ccc(NC(=O)OC(C)c4cccc(Cl)c4)cc3)c2cc1OC (stereo not shown) [Example 6, 1-(3-Chlorophenyl)ethyl N-{4-[(6,7-dimethoxy-4-quinazolinyl)oxy]phenyl}carbamate] | 
5 |  |  | < 10 | COc1cc2nccc(Oc3ccc(NC(=S)NC(=O)CCSC)cc3Cl)c2cc1OC [Example 697, N-{3-Chloro-4-[(6,7-dimethoxy-4-quinolyl)oxy]phenyl}-N′-[3-(methylthio)propanoyl]thiourea] | IC50 (c-kit; 50 ng/ml h-SCF): 211 nM
6 | 8 | 111 |  | COc1cc2nccc(Oc3ccc(NC(=O)OC4CCCCC4)cc3)c2cc1OC [Example 230, Cyclohexyl N-{4-[(6,7-dimethoxy-4-quinolyl)oxy]phenyl}carbamate] | 
7 |  |  | 77 | COc1cc2nccc(Oc3ccc(NC(=S)NC(=O)c4ccccc4Cl)c(Cl)c3)c2cc1OC [Example 1104, N-(2-Chlorobenzoyl)-N′-{2-chloro-4-[(6,7-dimethoxy-4-quinolyl)oxy]phenyl}thiourea] | inhibition at 1 µM (c-kit; figure in parentheses in −( )): 23%
8 |  |  | 28 | COc1cc2ncnc(Oc3ccc(NC(=S)NC(=O)C(C)Oc4ccccc4Cl)cc3)c2cc1OC (stereo not shown) [Example 1144, N-[2-(2-Chlorophenoxy)propanoyl]-N′-{4-[(6,7-dimethoxy-4-quinazolinyl)oxy]phenyl}thiourea] | inhibition at 1 µM (c-kit; figure in parentheses in −( )): 30%
9 |  |  | > 100 | COc1cc2ncnc(Oc3ccc(NC(=O)OC4CCOCC4)cc3)c2cc1OC [Example 473, Tetrahydro-2H-4-pyranyl N-{4-[(6,7-dimethoxy-4-quinazolinyl)oxy]phenyl}carbamate] | inhibition at 0.1 µM (PDGF-Ra; [2]): 30%; IC50 (c-kit; 50 ng/ml h-SCF): 259 nM
10 | < 10 | 185 |  | COc1cccc(OCCCOC(=O)Nc2cc(C)c(Oc3ccnc4cc(OC)c(OC)cc34)cc2C)c1 [Example 163, 3-(3-Methoxyphenoxy)propyl N-{4-[(6,7-dimethoxy-4-quinolyl)oxy]-2,5-dimethylphenyl}carbamate] | 
11 |  |  | > 100 | COc1cc2nccc(Oc3ccc(NC(=O)NC4CCN(Cc5ccccc5)CC4)c([N+](=O)[O-])c3)c2cc1OC [Example 638, N-(1-Benzyl-4-piperidyl)-N′-{4-[(6,7-dimethoxy-4-quinolyl)oxy]-2-nitrophenyl}urea] | inhibition at 0.1 µM (PDGF-Ra; [2]): 43%; inhibition at 1 µM (c-kit; [3]): 16%
12 |  |  | < 10 | COc1cc2ncnc(Oc3ccc(NC(=S)NC(=O)Cc4ccccc4Cl)cc3)c2cc1OC [Example 724, N-[2-(2-Chlorophenyl)acetyl]-N′-{4-[(6,7-dimethoxy-4-quinazolinyl)oxy]phenyl}thiourea] | IC50 (c-kit; 50 ng/ml h-SCF): 116 nM
13 | 15 | 473 |  | COc1cccc(C(C)OC(=O)Nc2cc(C)c(Oc3ccnc4cc(OC)c(OC)cc34)cc2C)c1 (stereo not shown) [Example 54, 1-(3-Methoxyphenyl)ethyl N-{4-[(6,7-dimethoxy-4-quinolyl)oxy]-2,5-dimethylphenyl}carbamate] | 
14 |  |  | > 100 | COc1cc2nccc(Oc3ccc(NC(=O)NC4CCN(Cc5ccc(C(C)(C)C)cc5)C4)cc3)c2cc1OC (stereo not shown) [Example 582, N-{1-[4-(Tert-butyl)benzyl]tetrahydro-1H-3-pyrrolyl}-N′-{4-[(6,7-dimethoxy-4-quinolyl)oxy]phenyl}urea] | inhibition at 0.1 µM (PDGF-Ra; [2]): 20%; inhibition at 1 µM (c-kit; [3]): 29%
15 | > 100 | 432 |  | COc1cc2ncnc(Oc3cc(C)c(NC(=O)OC4CCCC4)cc3C)c2cc1OC [Example 392, Cyclopentyl N-{4-[(6,7-dimethoxy-4-quinazolinyl)oxy]-2,5-dimethylphenyl}carbamate] | inhibition at 0.1 µM (PDGF-Ra; [1]): 38%
16 | 29 | 98 |  | COc1cc2nccc(Oc3cc(C)c(NC(=O)OC4CCCC4)cc3C)c2cc1OC [Example 364, Cyclopentyl N-{4-[(6,7-dimethoxy-4-quinolyl)oxy]-2,5-dimethylphenyl}carbamate] | 
17 |  |  | > 100 | CCN(CC)CCOc1ccc(Oc2ncnc3cc(OC)c(OC)cc23)cc1 [Example 807, N-(2-{4-[(6,7-Dimethoxy-4-quinazolinyl)oxy]phenoxy}ethyl)-N,N-diethylamine] | inhibition at 0.1 µM (PDGF-Ra; [2]): 20%; inhibition at 1 µM (c-kit; [3]): 20%
18 | 49 | 149 |  | COc1cc2nccc(Oc3ccc(NC(=O)OCCSc4cc(C)ccc4C)cc3)c2cc1OC [Example 165, 2-[(2,5-dimethylphenyl)sulfanyl]ethyl N-{4-[(6,7-dimethoxy-4-quinolyl)oxy]phenyl}carbamate] | 
19 |  |  | 11 | COc1cc2nccc(Oc3ccc(NC(=S)NC(=O)COc4ccccc4)cc3Cl)c2cc1OC [Example 738, N-{3-Chloro-4-[(6,7-dimethoxy-4-quinolyl)oxy]phenyl}-N′-(2-phenoxyacetyl)thiourea] | IC50 (c-kit; 50 ng/ml h-SCF): 269 nM
20 | 15 | 52 |  | COc1cc2ncnc(Oc3ccc(NC(=O)OCCSc4cc(C)ccc4C)cc3)c2cc1OC [Example 168, 2-[(2,5-Dimethylphenyl)sulfanyl]ethyl N-{4-[(6,7-dimethoxy-4-quinazolinyl)oxy]phenyl}carbamate] | 
21 | < 10 | 57 |  | COc1cc2nccc(Oc3ccc(NC(=O)OCCCOc4ccccc4Cl)c(C)c3C)c2cc1OC [Example 17, 3-(2-Chlorophenoxy)propyl N-{4-[(6,7-dimethoxy-4-quinolyl)oxy]-2,3-dimethylphenyl}carbamate] | 
22 | 42 |  |  | CCC(CC)OC(=O)Nc1ccc(Oc2ncnc3cc(OC)c(OC)cc23)cc1Cl [Example 362, 1-Ethylpropyl N-{2-chloro-4-[(6,7-dimethoxy-4-quinazolinyl)oxy]phenyl}carbamate] | inhibition at 1 µM (c-kit; figure in parentheses in −( )): 26%
23 | 6 | 185 |  | COc1cc2nccc(Oc3ccc(NC(=O)OCc4cccc(C)c4)cc3)c2cc1OC [Example 251, 3-Methylbenzyl N-{4-[(6,7-dimethoxy-4-quinolyl)oxy]phenyl}carbamate] | 
24 |  |  | 17 | COc1cc2ncnc(Oc3ccc(NC(=O)N[C@@H]4CCN(Cc5ccccc5)C4)cc3)c2cc1OC [Example 566, N-[(3R)-1-Benzyltetrahydro-1H-3-pyrrolyl]-N′-{4-[(6,7-dimethoxy-4-quinazolinyl)oxy]phenyl}urea] | IC50 (c-kit; 50 ng/ml h-SCF): 276 nM
25 |  |  | 17 | CCCCCC(C)OC(=O)Nc1ccc(Oc2ccnc3cc(OC)c(OC)cc23)cc1 (stereo not shown) [Example 411, 1-Methylhexyl N-{4-[(6,7-dimethoxy-4-quinolyl)oxy]phenyl}carbamate] | IC50 (c-kit; 50 ng/ml h-SCF): 43 nM
26 | 27 | 66 |  | COc1cc2ncnc(Oc3ccc(NC(=O)OC4CCCC4)cc3)c2cc1OC [Example 366, Cyclopentyl N-{4-[(6,7-dimethoxy-4-quinazolinyl)oxy]phenyl}carbamate] | 
27 | < 10 | < 30 |  | COc1cc2nccc(Oc3ccc(NC(=O)OCCCOc4cccc(F)c4)c(C)c3C)c2cc1OC [Example 148, 3-(3-Fluorophenoxy)propyl N-{4-[(6,7-dimethoxy-4-quinolyl)oxy]-2,3-dimethylphenyl}carbamate] | 
28 | < 10 | < 30 |  | COc1cc2nccc(Oc3ccc(NC(=O)OCCCSc4ccc(C)cc4)cc3)c2cc1OC [Example 37, 3-[(4-Methylphenyl)sulfanyl)propyl N-{4-[(6,7-dimethoxy-4-quinolyl)oxy]phenyl}carbamate] | 

Row | SMILES | IC50 (PDGF-Ra; Pharmacological Test Example 1) [nM] | IC50 (c-kit; h-SCF 50 ng/ml) [nM] | IC50 (PDGF-Ra) [nM] | also measured
29 | CCCCc1ccc(OC(=O)Nc2ccc(Oc3ccnc4cc(OC)c(OC)cc34)cc2)cc1 [Example 257, 4-Butylphenyl N-{4-[(6,7-dimethoxy-4-quinolyl)oxy]phenyl}carbamate] | 6 | 22 |  | 
30 | COc1cc2nccc(Oc3ccc(NC(=S)NC4CCN(Cc5ccccc5)CC4)c(C)c3C)c2cc1OC [Example 513, N-{4-[(6,7-Dimethoxy-4-quinolyl)oxy]-2,3-dimethylphenyl}-N′-[4-(N-benzyl)piperidinyl]thiourea] |  |  | > 100 | PDGF (E) inhibition (%) at 100 nM (PDGF-Ra; [2]): 28%; IC50 (c-kit; 50 ng/ml h-SCF): 720 nM
31 | COc1cc2nccc(Oc3ccc(NC(=O)Oc4c(C)cccc4C)cc3)c2cc1OC [Example 269, 2,6-Dimethylphenyl N-{4-[(6,7-dimethoxy-4-quinolyl)oxy]phenyl}carbamate] | 17 |  |  | inhibition at 1 µM (c-kit; figure in parentheses in −( )): 48%
